Measured values published in patent US20250295639A1, “METHODS FOR TREATING HEART DISEASES” (Cytokinetics, Incorporated, priority 2024, published 2025).
“And” between values parts separate entries of the source, which are not always exact repeats. Equal entries are not always repeated.

Legend:
[1] = system: patients with symptomatic oHCM; experiment: SEQUOIA-HCM cardiovascular magnetic resonance (CMR) substudy; type: in vivo, human; conditions: Echo Measurements; CMR Cohort N = 57 (Aficamten N = 25); Week 24
[2] = system: patients with symptomatic oHCM; experiment: SEQUOIA-HCM phase 3 trial: echocardiography (LVOT gradients, cardiac structure and function); type: in vivo, human; conditions: for LA Volume Index / LV Ejection Fraction / LV Mass Index / LV Maximal Wall Thickness: Non-CMR Cohort N = 225 (Aficamten N = 117)
Excerpt: The following example describes a phase 3, multi-center, randomized, double-blind, placebo-controlled trial to evaluate the efficacy and safety of aficamten in adults with symptomatic hypertrophic cardiomyopathy and left ventricular outflow tract obstruction. This trial evaluated the effects of treatment with aficamten over a 24-week period on cardiopulmonary exercise capacity and health status in patients with symptomatic oHCM. This trial was intended to establish the efficacy and safety of aficamten with respect to improvements in exercise capacity and patient symptoms, as well as reduction in left ventricular outflow tract gradient (LVOT-G) in patients with oHCM.
This was a Phase 3 randomized, placebo-controlled, double-blind, multi-center trial in patients with symptomatic oHCM. Approximately 270 eligible patients were to be randomized in a 1:1 ratio to receive aficamten or placebo. Doses of 5, 10, 15, or 20 mg or matching placebo were administered in an escalating manner using echocardiography to guide dose titration. Randomization was stratified by use of beta blockers and CPET exercise modality.
The trial comprised three periods. The screening period was up to 6 weeks in duration. The double-blind placebo-controlled treatment period lasted 24 weeks. Following the final dose of aficamten, there was a 4-week safety follow-up period. Aficamten was administered orally once daily. During the initial six weeks of the treatment period, aficamten doses were individually titrated at Weeks 2, 4, and 6 using echocardiography. […] An echocardiogram was performed at each subsequent visit during the trial and the dose down-titrated if necessary. The primary endpoint of pVO2 was measured by CPET at screening and at end of treatment (Week 24). If applicable, patients continued taking background HCM medications consistent with regional clinical practice guidelines during the trial.
Echocardiography. Echocardiography was done during screening and prior to dosing on Day 1. Echocardiography was also performed 2 hours after dosing in the clinic on Weeks 2, 4, 6, 8, 12, 16, 20, 24, and 28.
Certified sonographers performed echocardiography using standard high-quality, high-fidelity machines. Whenever possible, the same sonographer performed all studies for a single patient. Echocardiograms were performed after the patient had been resting in a supine position for at least 10 minutes and in accordance with the echocardiography manual. Instructions for the performance of the Valsalva maneuver and imaging the LVOT-G were also included in the echocardiography manual.
Echocardiographic parameters measured at least included the left ventricular parameters (resting left ventricular outflow tract pressure gradient (LVOT-G), post-Valsalva LVOT-G, LVEF, LVFS, global longitudinal strain (GLS), left ventricular end diastolic diameter (LVEDD), left ventricular end diastolic volume (LVEDV), left ventricular end systolic diameter (LVESD), left ventricular end systolic volume (LVESV), left ventricular cardiac output (LVCO), LV Stroke Volume, LVOT velocity time integral (VTI), interventricular septum thickness (IVST), isovolumic contraction time (IVCT), IVRT, E/E, ratio (septal and lateral), and left atrial volume (LAV)) in addition to right heart function metrics detailed in the echocardiography protocol.
All echocardiograms (including unscheduled) were sent to the core laboratory for interpretation. On-site interpretation of LVEF and LVOT-G were used for dose escalation and reduction decisions via IWRS. The core laboratory quantification of the echocardiograms was used for all statistical analyses.
Baseline values are presented as mean±SD. Placebo corrected differences are presented as mean±95% CI and adjusted for treatment and stratification by beta-blockers and exercise mode (bicycle vs treadmill). […]

[3] = Echo Measurements, Non-CMR Cohort N = 225, vs placebo
[4] = Treatment (Week 24), listed as Aficamten

CCc1nc(-c2ccc3c(c2)CC[C@H]3NC(=O)c2cnn(C)c2)no1 [aficamten, (R)—N-(5-(5-ethyl-1,2,4-oxadiazol-3-yl)-2,3-dihydro-1H-inden-1-yl)-1-methyl-1H-pyrazole-4-carboxamide]
LV Mass Index [1]: 120 ± 32 g/m2 | patients of the SAM-resolution group reverting to baseline mitral valve SAM after washout ([2]; 50/61): 82% | patients with complete resolution of mitral valve SAM ([2]; 61/117, 24 weeks treatment): 52% | LA Volume Index ([2]; Echo Measurements, Baseline): 40 ± 13 mL/m^2 | LV Ejection Fraction ([2]; Echo Measurements, Baseline): 74.8 ± 5.6% | LV Mass Index ([2]; Echo Measurements, Baseline): 131 ± 33 g/m^2 | LV Maximal Wall Thickness ([2]; Echo Measurements, Baseline): 20.7 ± 3.0 mm | LA Volume Index ([2]; Echo Measurements, Week 24): 37 ± 11 mL/m^2 | LV Ejection Fraction ([2]; Echo Measurements, Week 24): 67.8 ± 7.4% | LV Mass Index ([2]; Echo Measurements, Week 24): 126 ± 33 g/m^2 | LV Maximal Wall Thickness ([2]; Echo Measurements, Week 24): 19.2 ± 3.2 mm | LA Volume Index, Treatment Effect [2, 3]: −5 mL/m^2 | LV Ejection Fraction, Treatment Effect [2, 3]: −5.3% | LV Mass Index, Treatment Effect [2, 3]: −13 g/m^2 | LV Maximal Wall Thickness, Treatment Effect [2, 3]: −1.2 mm | Inferolateral wall: placebo-corrected treatment difference (95% CI) ([2]; Treatment (Week 24)): −0.8 (−1.3, −0.3) mm | Interventricular septal wall: placebo-corrected treatment difference (95% CI) ([2]; Treatment (Week 24)): −1.0 (−1.6, −0.3) mm | LA volume index: placebo-corrected treatment difference (95% CI) ([2]; Treatment (Week 24)): −3.8 ml/m2 | LA width: placebo-corrected treatment difference (95% CI) ([2]; Treatment (Week 24)): −2.7 (−3.8, −1.7) mm | LV Fractional Shortening: placebo-corrected treatment difference (95% CI) ([2]; Treatment (Week 24)): −4 (−7, −2) % | LV end diastolic dimension: placebo-corrected treatment difference (95% CI) ([2]; Treatment (Week 24)): −0.3 (−1.1, 0.5) mm | LV end diastolic volume index: placebo-corrected treatment difference (95% CI) ([2]; Treatment (Week 24)): −0.2 (−1.5, 1.2) ml/m2 | LV end systolic dimension: placebo-corrected treatment difference (95% CI) ([2]; Treatment (Week 24)): +1.6 (0.7, 2.4) mm | LV end systolic volume index: placebo-corrected treatment difference (95% CI) ([2]; Treatment (Week 24)): +1.7 ml/m2 | LV mass index: placebo-corrected treatment difference (95% CI) ([2]; Treatment (Week 24)): −12.2 (−18.0, −6.5) g/m2 | LVOT Gradient, Valsalva: placebo-corrected treatment difference (95% CI) ([2]; Treatment (Week 24)): −50 mmHg | LVOT Gradient, rest: placebo-corrected treatment difference (95% CI) ([2]; Treatment (Week 24)): −40 mmHg | Lateral E/e′: placebo-corrected treatment difference (95% CI) ([2]; Treatment (Week 24)): −3.9 | Lateral e′ velocity: placebo-corrected treatment difference (95% CI) ([2]; Treatment (Week 24)): +1.2 cm/s | Max wall thickness: placebo-corrected treatment difference (95% CI) ([2]; Treatment (Week 24)): −1.2 (−1.8, −0.6) mm | Peak A wave velocity: placebo-corrected treatment difference (95% CI) ([2]; Treatment (Week 24)): −2.4 (−6.3, 1.5) cm/s | Peak E wave velocity: placebo-corrected treatment difference (95% CI) ([2]; Treatment (Week 24)): −7.5 (−11.7, −3.2) cm/s | RV s′ velocity: placebo-corrected treatment difference (95% CI) ([2]; Treatment (Week 24)): −1.4(−2.0, −0.9) cm/s | Septal E/e′: placebo-corrected treatment difference (95% CI) ([2]; Treatment (Week 24)): −3.6 | Septal e′ velocity: placebo-corrected treatment difference (95% CI) ([2]; Treatment (Week 24)): +0.5 cm/s | TAPSE: placebo-corrected treatment difference (95% CI) ([2]; Treatment (Week 24)): −2.1 (−3.2,−1.1) mm | LA volume index: placebo-corrected treatment difference (95% CI) [2, 4]: −3.8 (−5.5, −2.2) ml/m2 | LV Ejection Fraction: placebo-corrected treatment difference (95% CI) [2, 4]: −4.8% and −5 (−6, −3) % | LV end systolic volume index: placebo-corrected treatment difference (95% CI) [2, 4]: +1.7 (1.0, 2.4) ml/m2 | LV global circumferential strain (absolute): placebo-corrected treatment difference (95% CI) [2, 4]: −3.7% and −3.7 (−5.6, −1.8) % | LVOT Gradient, Valsalva: placebo-corrected treatment difference (95% CI) [2, 4]: −50 (−57, −44) mmHg | LVOT Gradient, rest: placebo-corrected treatment difference (95% CI) [2, 4]: −40 (−46, −34) mmHg | Lateral E/e′: placebo-corrected treatment difference (95% CI) [2, 4]: −3.9 (−5.0, −2.8) | Lateral e′ velocity: placebo-corrected treatment difference (95% CI) [2, 4]: 1.2 (0.7, 1.6) cm/s | Septal E/e′: placebo-corrected treatment difference (95% CI) [2, 4]: −3.6 (−4.8, −2.5) | Septal e′ velocity: placebo-corrected treatment difference (95% CI) [2, 4]: 0.5 (0.2, 0.8) cm/s | Inferolateral wall: placebo-corrected treatment difference (95% CI) ([2]; Washout (Week 28)): −0.2 (−0.8, 0.3) mm | Interventricular septal wall: placebo-corrected treatment difference (95% CI) ([2]; Washout (Week 28)): −0.3 (−1.0, 0.4) mm | LA volume index: placebo-corrected treatment difference (95% CI) ([2]; Washout (Week 28)): −3.0 (−4.9, −1.0) ml/m2 | LA width: placebo-corrected treatment difference (95% CI) ([2]; Washout (Week 28)): −0.8 (−1.8, 0.3) mm | LV Ejection Fraction: placebo-corrected treatment difference (95% CI) ([2]; Washout (Week 28)): −1 (−2, 1) % | LV Fractional Shortening: placebo-corrected treatment difference (95% CI) ([2]; Washout (Week 28)): −1 (−3, 2) % | LV end diastolic dimension: placebo-corrected treatment difference (95% CI) ([2]; Washout (Week 28)): −0.7 (−1.6, 0.2) mm | LV end diastolic volume index: placebo-corrected treatment difference (95% CI) ([2]; Washout (Week 28)): −1.2 (−2.5, 0.1) ml/m2 | LV end systolic dimension: placebo-corrected treatment difference (95% CI) ([2]; Washout (Week 28)): −0.2 (−1.1, 0.8) mm | LV end systolic volume index: placebo-corrected treatment difference (95% CI) ([2]; Washout (Week 28)): −0.1 (−0.7, 0.5) ml/m2 | LV global circumferential strain (absolute): placebo-corrected treatment difference (95% CI) ([2]; Washout (Week 28)): −0.8 (−2.5, 0.9) % | LV global longitudinal strain (absolute): placebo-corrected treatment difference (95% CI) ([2]; Washout (Week 28)): −0.1 (−0.6, 0.5) % | LV mass index: placebo-corrected treatment difference (95% CI) ([2]; Washout (Week 28)): −3.7 (−10.2, 2.8) g/m2 | LVOT Gradient, Valsalva: placebo-corrected treatment difference (95% CI) ([2]; Washout (Week 28)): −1 (−8, 6) mmHg | LVOT Gradient, rest: placebo-corrected treatment difference (95% CI) ([2]; Washout (Week 28)): −1 (−6, 7) mmHg | Lateral E/e′: placebo-corrected treatment difference (95% CI) ([2]; Washout (Week 28)): −0.2 (−1.6, 1.2) | Lateral e′ velocity: placebo-corrected treatment difference (95% CI) ([2]; Washout (Week 28)): −0.2 (−0.6, 0.3) cm/s | Peak A wave velocity: placebo-corrected treatment difference (95% CI) ([2]; Washout (Week 28)): 3.2 (−0.5, 6.9) cm/s | Peak E wave velocity: placebo-corrected treatment difference (95% CI) ([2]; Washout (Week 28)): −1.6 (−5.8, 2.7) cm/s | RV s′ velocity: placebo-corrected treatment difference (95% CI) ([2]; Washout (Week 28)): +0.3 (−0.2, 0.9) cm/s | Septal E/e′: placebo-corrected treatment difference (95% CI) ([2]; Washout (Week 28)): −0.6 (−1.7, 0.6) | Septal e′ velocity: placebo-corrected treatment difference (95% CI) ([2]; Washout (Week 28)): −0.0 (−0.3, 0.2) cm/s | TAPSE: placebo-corrected treatment difference (95% CI) ([2]; Washout (Week 28)): +0.8 (−0.3, 1.9) mm | rest LV outflow tract gradient on treatment ([2]; end of treatment period, from 55±27 at baseline): 20±17 mmHg | Valsalva LV outflow tract gradient on treatment ([2]; end of treatment period, from 83±32 at baseline): 35±25 mmHg | reduction of Valsalva LVOT gradient compared to baseline ([2]; week 2): 25% | reduction of rest LVOT gradient compared to baseline ([2]; week 2): 31%
